Data as given in ChEMBL document CHEMBL2146461, “Synthesis and antiplasmodial activity of new heteroaryl derivatives of 7-chloro-4-aminoquinoline” (Bioorg Med Chem, 2012).

Experiments:
Plasmodium falciparum [1] = assay: Antiplasmodial activity against chloroquine-sensitive Plasmodium falciparum D10 infected in human red blood cells after 72 hrs by parasite lactate dehydrogenase assay; type: functional, organism-based; conditions: D10, 72 h
Plasmodium falciparum [2] = assay: Ratio of chloroquine IC50 to compound IC50 for chloroquine-sensitive Plasmodium falciparum D10; type: functional
Plasmodium falciparum [3] = assay: Antiplasmodial activity against chloroquine-resistant Plasmodium falciparum W2 infected in human red blood cells after 72 hrs by parasite lactate dehydrogenase assay; type: functional, organism-based; conditions: W2, 72 h
Plasmodium falciparum [4] = assay: Ratio of chloroquine IC50 to compound IC50 for chloroquine-resistant Plasmodium falciparum W2; type: functional
[5] = Resistance index, ratio of IC50 for chloroquine-resistant Plasmodium falciparum W2 to IC50 for chloroquine-sensitive Plasmodium falciparum D10; type: functional
[6] = Cytotoxicity against human HMEC1 cells after 72 hrs by MTT assay; type: cell-based; conditions: HMEC-1, 72 h
[7] = Selectivity index, ratio of IC50 for human HMEC1 cells to IC50 for chloroquine-resistant Plasmodium falciparum W2; type: toxicity, cell-based; conditions: read-out: Ratio IC50
[8] = Lipophilicity, log P of the compound at pH 7.4; type: physicochemical; conditions: buffer
[9] = n-octanol-KCl distribution coefficient, log D of the compound at pH 7.4; type: physicochemical
[10] = Dissociation constant, pKa of the compound; type: physicochemical
[11] = Inhibition of beta-hematin formation assessed as ratio of drug to haemin for 50% inhibition by BHIA assay; type: functional

| SMILES | IC50 (Plasmodium falciparum [1]) | Ratio IC50 (Plasmodium falciparum [2]) | IC50 (Plasmodium falciparum [3]) | Ratio IC50 (Plasmodium falciparum [4]) | Ratio IC50 [5] | IC50 [6] | selectivity ratio [7] | logP [8] | logD [9] | pKa [10] | logP ([8]; read-out: logP) | IC50 [11] |
| --- | --- | --- | --- | --- | --- | --- | --- | --- | --- | --- | --- | --- |
| Cn1c(CNc2ccnc3cc(Cl)ccc23)nc(-c2ccccc2)c1CN1CCCC1 | 11.8 nM | 1.18 | 26.5 nM | 16.27 | 2.2 | 28600 nM | 1080 | 9.18 | 7.57 |  |  |  |
| Clc1ccc2c(NCc3nc(-c4ccccc4)cs3)ccnc2c1 | 212 nM | 0.07 | 396 nM | 1.09 | 1.9 |  |  |  | 5.15 | 6.45 | 5.2 |  |
| Clc1ccc2c(Nc3ccc(CN4CCCC4)s3)ccnc2c1 | 2660 nM | 0.01 | 4220 nM | 0.04 | 1.6 |  |  |  | 2.98 |  | 3.93 |  |
| Cc1ccc(-c2c[nH]c(CNc3ccnc4cc(Cl)ccc34)n2)cc1 | 17.2 nM | 0.64 | 40.7 nM | 7.1 | 2.4 | 7770 nM | 191 |  | 4.66 |  | 4.95 |  |
| Cc1ccc(-c2nc(CNc3ccnc4cc(Cl)ccc34)[nH]c2CN2CCCC2)cc1 | 7.4 nM | 1.49 | 69.3 nM | 4.17 | 9.4 | 3660 nM | 53 |  | 4 |  | 6.45 |  |
| Clc1ccc2c(NCc3ncc(CN4CCCC4)[nH]3)ccnc2c1 | 399 nM | 0.04 | 3120 nM | 0.05 | 7.8 |  |  |  | 1.42 |  | 4.78 |  |
| CCN(CC)CCCC(C)Nc1ccnc2cc(Cl)ccc12 (configuration not stated) [CHLOROQUINE] |  |  |  |  |  | > 38000 nM |  |  |  |  |  | 1.94 molar ratio |
| Clc1ccc2c(NCc3nc(-c4ccc(N5CCCC5)cc4)c[nH]3)ccnc2c1 | 18.2 nM | 0.77 | 35.3 nM | 12.22 | 1.9 | 2430 nM | 69 |  | 8.53 |  | 8.87 |  |
| Clc1ccc(-c2nc(CNc3ccnc4cc(Cl)ccc34)[nH]c2CN2CCCC2)cc1 | 5.5 nM | 2 | 27.2 nM | 10.62 | 4.9 | 2060 nM | 76 |  | 4.63 |  | 6.96 |  |
| CCN(CC)Cc1[nH]c(CNc2ccnc3cc(Cl)ccc23)nc1-c1ccccc1 | 28 nM | 0.58 | 85.8 nM | 1.78 | 3.1 | 9140 nM | 107 |  |  |  |  |  |
| Clc1ccc2c(NCc3ncc[nH]3)ccnc2c1 | 152 nM | 0.11 | 384 nM | 0.39 | 2.5 |  |  |  | 2.39 |  | 2.82 |  |
| Clc1ccc2c(NCc3nc(-c4ccccc4)c[nH]3)ccnc2c1 | 116 nM | 0.14 | 85.1 nM | 1.78 | 0.7 | 13100 nM | 154 |  | 4.62 |  | 4.98 |  |
| Clc1ccc(-c2c[nH]c(CNc3ccnc4cc(Cl)ccc34)n2)cc1 | 25.8 nM | 0.43 | 60.5 nM | 4.77 | 2.3 | 7450 nM | 123 |  | 5.1 |  | 5.34 |  |
| CN(C)c1cccc(-c2c[nH]c(CNc3ccnc4cc(Cl)ccc34)n2)c1 | 32 nM | 0.46 | 53.5 nM | 7.78 | 1.7 | 8970 nM | 168 |  | 5.48 |  | 5.86 |  |
| Clc1ccc2c(NCc3nc(-c4ccccc4)c(CN4CCCC4)[nH]3)ccnc2c1 | 22.9 nM | 0.71 | 91.6 nM | 1.67 | 4 | 8660 nM | 95 |  | 4.22 |  | 6.35 |  |
| CN(C)c1ccc(-c2c[nH]c(CNc3ccnc4cc(Cl)ccc34)n2)cc1 | 13.4 nM | 0.82 | 20.9 nM | 13.8 | 1.6 | 6670 nM | 320 |  | 4.75 |  | 5.07 | 0.42 molar ratio |
| Clc1ccc2c(NCc3nc(-c4ccccc4)co3)ccnc2c1 | 270 nM | 0.05 | 513 nM | 0.84 | 1.9 |  |  |  | 4.81 | 6.36 | 4.85 |  |
| CCN(CC)Cc1ccc(Nc2ccnc3cc(Cl)ccc23)s1 | 1860 nM | 0.08 | 2580 nM | 0.06 | 1.4 |  |  |  |  |  |  |  |
| CCN(CC)Cc1cnc(CNc2ccnc3cc(Cl)ccc23)[nH]1 | 191 nM | 0.07 | 3800 nM | 0.04 | 19.9 |  |  |  |  |  |  |  |
| CCN(CC)Cc1[nH]c(CNc2ccnc3cc(Cl)ccc23)nc1-c1ccc(Cl)cc1 | 8.8 nM | 1.25 | 27.6 nM | 10.47 | 3.1 | 2440 nM | 89 |  |  |  |  |  |
| Clc1ccc2c(NCc3nc(-c4ccccc4)c(CN4CCCC4)s3)ccnc2c1 | 19.3 nM | 0.81 | 60.1 nM | 4.93 | 3.1 | 30400 nM | 506 |  | 6.01 |  | 6.78 |  |
| Fc1ccc(-c2c[nH]c(CNc3ccnc4cc(Cl)ccc34)n2)cc1 | 52.1 nM | 0.28 | 82.4 nM | 5.05 | 1.6 | 9920 nM | 120 |  | 4.93 |  | 5.31 |  |
| Cn1cc(-c2ccccc2)nc1CNc1ccnc2cc(Cl)ccc12 | 30 nM | 0.46 | 70.3 nM | 6.14 | 2.3 | 17500 nM | 249 |  | 4.57 |  | 4.99 |  |
| Fc1ccc(-c2nc(CNc3ccnc4cc(Cl)ccc34)[nH]c2CN2CCCC2)cc1 | 25.7 nM | 0.57 | 197 nM | 2.11 | 7.7 |  |  |  | 4.77 |  | 6.78 |  |
| Clc1ccc2c(NCc3ccc(CN4CCCC4)s3)ccnc2c1 | 12.5 nM | 1.11 | 26.3 nM | 16.43 | 2.1 | 24200 nM | 921 |  | 2.77 |  | 4.42 | 1.08 molar ratio |
| Clc1ccc2c(NCc3nc4ccccc4[nH]3)ccnc2c1 | 70.6 nM | 0.2 | 256 nM | 1.68 | 3.6 | 2400 nM | 9 |  | 3.56 |  | 3.78 |  |
